In brackets after ≈: the same amount, converted by molar mass.
test system: A549; assay: Cytotoxicity against Homo sapiens (human) A549 cells assessed as cell viability by MTT assay; type: functional, cell-based

Compound	IC50
CCn1cc(-c2nnc(COc3cccc4ccccc34)o2)c(=O)c2cc(F)c(N3CCNCC3)cc21	127 µg/mL (≈ 254 µM)
CCn1cc(-c2nnc(-c3ccc(Nc4ccccc4)cc3)o2)c(=O)c2cc(F)c(N3CCNCC3)cc21	88.6 µg/mL (≈ 174 µM)
CN(C)/N=N/c1[nH]cnc1C(N)=O [DACARBAZINE]	35 µg/mL (≈ 192 µM)
CCn1cc(-c2nnc(-c3ccccc3)o2)c(=O)c2cc(F)c(N3CCNCC3)cc21	112 µg/mL (≈ 267 µM)
O=c1c(-c2nnc(COc3ccccc3)o2)cn(C2CC2)c2cc(N3CCNCC3)c(F)cc12	48.6 µg/mL (≈ 105 µM)
O=c1c(-c2nnc(Cc3ccccc3)o2)cn(C2CC2)c2cc(N3CCNCC3)c(F)cc12	86 µg/mL (≈ 193 µM)
O=c1c(-c2nnc(-c3ccc([N+](=O)[O-])cc3)o2)cn(C2CC2)c2cc(N3CCNCC3)c(F)cc12	8 µg/mL (≈ 16.8 µM)
O=c1c(-c2nnc(-c3ccc(Nc4ccccc4)cc3)o2)cn(C2CC2)c2cc(N3CCNCC3)c(F)cc12	52 µg/mL (≈ 99.5 µM)
O=c1c(-c2nnc(COc3ccc4ccccc4c3)o2)cn(C2CC2)c2cc(N3CCNCC3)c(F)cc12	16 µg/mL (≈ 31.3 µM)
O=c1c(-c2nnc(-c3ccccc3)o2)cn(C2CC2)c2cc(N3CCNCC3)c(F)cc12	46 µg/mL (≈ 107 µM)
CCn1cc(-c2nnc(COc3ccc4ccccc4c3)o2)c(=O)c2cc(F)c(N3CCNCC3)cc21	80.2 µg/mL (≈ 161 µM)
O=c1c(-c2nnc(COc3cccc4ccccc34)o2)cn(C2CC2)c2cc(N3CCNCC3)c(F)cc12	96.2 µg/mL (≈ 188 µM)
CCn1cc(-c2nnc(-c3ccc([N+](=O)[O-])cc3)o2)c(=O)c2cc(F)c(N3CCNCC3)cc21	74.3 µg/mL (≈ 160 µM)
CCn1cc(-c2nnc(Cc3ccccc3)o2)c(=O)c2cc(F)c(N3CCNCC3)cc21	118 µg/mL (≈ 273 µM)
CCn1cc(-c2nnc(COc3ccccc3)o2)c(=O)c2cc(F)c(N3CCNCC3)cc21	76.8 µg/mL (≈ 171 µM)

Source: ChEMBL document CHEMBL3045040, “Synthesis and antiproliferative activity of 1-[(sub)]-6-fluoro-3-[(sub)]-1, 3,4-oxadiazol-2-yl-7-piperazino-1, 4-dihydro-4-quinolinone derivatives” (Med Chem Res, 2007)
